Reference: patent US20260337212A1, “IP4-4,6 SUBSTITUTED DERIVATIVE COMPOUNDS FOR USE IN THE TREATMENT, INHIBITION OF PROGRESSION, AND PREVENTION OF ECTOPIC CALCIFICATION” (SANIFIT THERAPEUTICS, S.A., priority 2022, published 2026)

Assays:
[1] = In vitro inhibition of calcium phosphate crystallization in human plasma (spectrophotometric); format: biochemical; conditions: 0-100 μM, 1.5 mM phosphate, 12.5 mM calcium, pH 7.4, 30 min, rt, read-out: Relative Potency (EC50, inhibition of calcium phosphate crystallization)
How it was run: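 Human plasma spiked with compound (0-100 μM), centrifuged, then brought to final 1.5 mM phosphate and 12.5 mM calcium, pH 7.4. Absorbance at 550 nm read every 3 min for 30 min at rt; inhibition from slopes (6-24 min, absorbance vs log time) relative to blank plasma.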

[2] = Rat vitamin D3 model: blood perfusion of posterior limbs by laser doppler perfusion imaging; format: in vivo, Sprague Dawley rat; conditions: FIG. 13
Experimental: Statistical analysis: One-way ANOVA with Fisher's LSD test for post-hoc comparisons. The result of the ANOVA was p<0.0001. (#) indicates significant differences vs sham, (*) indicates significant differences vs vehicle, (§) indicates significant differences vs Compound 27 5 mg/kg (only applies to other Compound 27 doses), p<0.05. N=10-12 animals/group.
The model evaluated the effects of Compound 27 on tissue calcification, blood perfusion, and walking ability in rats for a duration of 13 days. Tissue calcification was induced in groups 2-5 from D1 to D3. Animals induced with calcification were administered placebo or active agent formulations from D1 onwards to assess their effects in preventing calcification. The impact of treatment on tissue calcification, blood perfusion, and walking ability was evaluated. Observations were taken at several points during the treatment from D0 to D13. All animals were weighed every day before treatment. […]
Blood perfusion (BP) was evaluated by laser doppler perfusion imaging applied to the posterior limbs of the animals using a PeriCam PSI Normal Resolution analyzer (Perimed A B, Järfälla, S E). […] The perfusion ratio (i.e., mean of the two legs) was calculated by comparing the baseline and either D4 or D13 readings for each group. In addition, the perfusion ratio was calculated by comparing group 1 and groups 2-5.

For “4,6-O-bis(5-acetamidopentyl)-myo-inositol-1,2,3,5-tetrakis(phosphate) octasodium salt [Compound 27]”, which EC50 [1] is on record?
The EC50 was at most 5 µM.

And the “Effect on blood perfusion” value ([2]; 5, 15, 45 mg/kg s.c. daily, D13)?
The value was “dose-response effect from 5 mg/kg”.

And the “Recovery of posterior limb blood perfusion” value ([2]; 15 and 45 mg/kg s.c. daily)?
Its value is “recovery of posterior limb blood perfusion at doses of 15 and 45 mg/kg”.
